From publication PMC9921161, “Antihyaluronidase and Antioxidant Potential of Atriplex sagittata Borkh. in Relation to Phenolic Compounds and Triterpene Saponins” (Molecules, 2023)

Target: Hyaluronidase from bovine testes type I-S (Bos taurus, UniProt Q2YDK3)
Test: Antihyaluronidase activity, spectrophotometric (turbidimetric CTAB) method
Format: biochemical
Details: for IC50 hyaluronidase inhibition: pH 4.5, 37 °C
Procedure: Antihyaluronidase activity was determined using a spectrophotometric method described previously. Briefly, extracts after evaporation of methanol were dissolved in DMSO (at concentrations of 0.01–1 mg/mL) and were pre-incubated (10 min, 37 °C) in the presence of the hyaluronidase enzyme (25 µL Hyal, 30 U/mL) and incubation buffer (25 µL, acetate buffer, pH 4.5, […], 0.5 mg/mL albumin). The same procedure was applied to isolated compounds (at concentrations 0.005–1 mg/mL). Next, a solution of hyaluronic acid (25 µL HA, 0.3 mg/mL) was added to the reaction mixtures and the samples were incubated (45 min, 37 °C). After incubation, CTAB (200 µL of 2.5%) solution was added to the reaction mixtures. The inhibitory effect of the tested extracts and saponins on the enzyme activity was determined on the basis of the measurement of the absorbance of the precipitated nonhydrolyzed hyaluronic acid. The study was carried out using a multipurpose plate reader (Synergy HT BioTek, Winooski, VT, USA) at a wavelength of 600 nm. Antihyaluronidase activity was expressed as % enzyme inhibition, as previously described. Quercetin and escin were used as positive controls in the range of concentrations (10–1000 µg/mL corresponding to the analyzed substances (see Table 4).

[1] = read-out: Hyaluronidase Inhibition [%]

Sequence of Hyaluronidase from bovine testes type I-S (Q2YDK3 entry or part of it): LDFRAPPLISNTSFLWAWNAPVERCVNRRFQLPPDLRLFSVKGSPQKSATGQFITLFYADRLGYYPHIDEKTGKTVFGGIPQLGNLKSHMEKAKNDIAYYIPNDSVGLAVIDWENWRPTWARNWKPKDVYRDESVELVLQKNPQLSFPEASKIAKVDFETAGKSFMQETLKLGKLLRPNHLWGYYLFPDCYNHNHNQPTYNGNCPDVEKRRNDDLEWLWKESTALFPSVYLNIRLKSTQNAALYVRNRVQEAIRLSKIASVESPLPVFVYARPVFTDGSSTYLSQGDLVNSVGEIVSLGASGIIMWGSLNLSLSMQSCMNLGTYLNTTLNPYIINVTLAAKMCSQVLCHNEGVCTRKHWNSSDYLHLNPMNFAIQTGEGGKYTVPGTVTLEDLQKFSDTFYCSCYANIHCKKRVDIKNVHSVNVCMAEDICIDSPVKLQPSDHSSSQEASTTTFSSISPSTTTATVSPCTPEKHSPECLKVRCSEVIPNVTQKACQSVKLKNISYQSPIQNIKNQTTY

| Molecule | IC50 hyaluronidase inhibition | inhibition at 10 µg/mL [1] | inhibition at 20 µg/mL [1] | inhibition at 50 µg/mL [1] | inhibition at 100 µg/mL [1] | inhibition at 200 µg/mL [1] | inhibition at 300 µg/mL [1] | inhibition at 500 µg/mL [1] | inhibition at 700 µg/mL [1] | inhibition at 1000 µg/mL [1] |
| --- | --- | --- | --- | --- | --- | --- | --- | --- | --- | --- |
| escin | 307.38 µg/mL |  |  |  |  |  |  |  |  |  |
| O=c1c(O)c(-c2ccc(O)c(O)c2)oc2cc(O)cc(O)c12 [quercetin] | 514.28 µg/mL | 0.61 ± 0.53% | 0.62 ± 0.54% | 1.24 ± 0.99% | 4.39 ± 0.88% | 13.9 ± 2.7% | 21.9 ± 4.04% | 38.8 ± 1.33% | 80.56 ± 0.49% | 91.1 ± 1.5% |
